Results taken from US7547676B2, “Antagonist peptides to the C5A chemotactic function of vitamin D binding protein” (The Research Foundation of State University of New York, priority 2004, dated 2009).

T1: DBP immobilized on a Biacore sensor chip (Homo sapiens, UniProt P02774)
T1 construct: DBP was purified from human plasma; purchased Biodesign International; host or cells: human plasma
T1 sequence (P02774 17-474): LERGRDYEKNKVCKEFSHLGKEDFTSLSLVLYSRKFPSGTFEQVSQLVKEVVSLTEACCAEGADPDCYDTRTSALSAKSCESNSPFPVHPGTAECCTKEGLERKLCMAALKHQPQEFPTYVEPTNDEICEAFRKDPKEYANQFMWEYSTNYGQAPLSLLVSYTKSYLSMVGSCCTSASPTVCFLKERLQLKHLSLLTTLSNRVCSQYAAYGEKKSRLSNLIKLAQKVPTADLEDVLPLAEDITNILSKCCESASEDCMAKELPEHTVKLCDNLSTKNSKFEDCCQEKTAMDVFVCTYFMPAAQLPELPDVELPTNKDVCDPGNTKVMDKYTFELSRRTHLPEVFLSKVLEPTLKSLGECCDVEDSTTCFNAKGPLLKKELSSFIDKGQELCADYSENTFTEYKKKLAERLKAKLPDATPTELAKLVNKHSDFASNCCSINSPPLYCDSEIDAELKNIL

B1: full-length reDBP: E. coli expressed full-length human DBP (Gc-2 allele), residues 1-458 (protein)
chain: LERGRDYEKNKVCKEFSHLGKEDFTSLSLVLYSRKFPSGTFEQVSQLVKEVVSLTEACCAEGADPDCYDTRTSALSAKSCESNSPFPVHPGTAECCTKEGLERKLCMAALKHQPQEFPTYVEPTNDEICEAFRKDPKEYANQFMWEYSTNYGQAPLSLLVSYTKSYLSMVGSCCTSASPTVCFLKERLQLKHLSLLTTLSNRVCSQYAAYGEKKSRLSNLIKLAQKVPTADLEDVLPLAEDITNILSKCCESASEDCMAKELPEHTVKLCDNLSTKNSKFEDCCQEKTAMDVFVCTYFMPAAQLPELPDVELPTNKDVCDPGNTKVMDKYTFELSRRTHLPEVFLSKVLEPTLKSLGECCDVEDSTTCFNAKGPLLKKELSSFIDKGQELCADYSENTFTEYKKKLAERLKAKLPDATPKELAKLVNKRSDFASNCCSINSPPLYCDSEIDAELKNIL

What was measured:
[1] = tested on: differentiated HL-60 cells; assay: Chemotaxis assay, differentiated HL-60 cells responding to C5a, C5a plus DBP or ZAS; format: cell-based, Human; settings: for block of the cochemotactic function of full-length natural DBP (C5a+DBP) / HL-60 cell chemotactic response to complement-activated serum (ZAS): cells pretreated with 1 μM peptide 30 min; for block of the cochemotactic function of full-length natural DBP (C5a+DBP): 100 pM C5a plus 50 nM DBP, 60 min; for HL-60 cell chemotactic response to complement-activated serum (ZAS): 1% ZAS; for enhancement of C5a-mediated chemotaxis by the peptides: peptides by themselves or mixed together
Description: Cells (6×10^6/ml) were resuspended in chemotaxis buffer and treated either with chemotaxis buffer (control), 1 μM of peptide 1 (130-152), or 1 μM of peptide 2 (150-172) for 30 min at room temperature. The chemotactic response of differentiated HL-60 cells to 100 pM C5a alone, C5a plus 50 nM full-length natural DBP or 1% zymosan-activated serum (ZAS) was measured for 60 minutes at 37° C. Numbers represent net cell movement in 60 min, mean±SEM of 3 experiments.
(§1) Cells and cell culture: Human promyelocytic cell line HL-60 was obtained from ATCC (Rockville, Md.) and cultured in RPMI 1640 medium supplemented with 10% FBS. Differentiation of HL-60 cells was initiated with 250 μM Bt2cAMP for 48 hours.
Chemotaxis assay. Chemotaxis was performed as described previously (see Kew, R. R. et al., J. Leukoc. Biol. 58, 55-58 (1995)). In brief, 35 μl of C5a (0.01 to 1 nM) in the chemotaxis buffer (HBSS with 1% BSA, 10 mM HEPES) were placed in duplicate in the lower chamber of a 48-well chamber (Neuroprobe, Md.). The lower compartments were covered with a 5 μm pore cellulose nitrate filter and then 50 μl of the cell suspension (2.5×10^5/well) was pipetted into the upper compartments. The chemotactic chamber was incubated for 1 hour at 37° C. in a humidified incubator with 5% CO2. Following incubation, the filter was fixed, stained and mounted on a microscope slide. Cell movement was measured as the distance in microns that the leading front of the cells had migrated into the filter (see Zigmond, S. et al., J. Exp. Med. 137, 387 (1973)).

[2] = target: T1, DBP immobilized on a Biacore sensor chip; assay: Biacore surface plasmon resonance: U937-C5aR cell binding to immobilized DBP; settings: FIG. 9A; 10^6 cells/ml pretreated with 50 nM DBP or 0.5 μM DBP peptide
Description: FIG. 8A and FIG. 8B show immobilization of DBP on a Biacore surface plasmon resonance sensor chip CM5. Purified DBP in HBSS (5 μM) was coupled to the sensor chip. Coupling was detected using 5 μg/ml affinity-purified anti-DBP (FIG. 8A). Different concentrations of U937-C5aR cells in HBSS were injected into the flow cell and allowed to interact with the immobilized DBP (FIG. 8B). Data is expressed as response units of the molecular interaction on the sensor chip.
(§2) FIGS. 9A to 9C show the effect of pretreating U937-C5aR cells with purified DBP or DBP peptides on the binding to DBP immobilized on a Biacore sensor chip. FIG. 9A: 10^6 cells/ml in HBSS were not treated (control), pretreated with 50 nM DBP, 0.5 μM DBP peptide 1 (p1) or DBP peptide 2 (p2). FIG. 9B: DBP peptide 1 immobilized to the Biacore sensor chip. FIG. 9C: DBP peptide 2 immobilized to the Biacore sensor chip. Data is expressed as response units of the molecular interaction on the sensor chip.
U937-C5aR cells (10^6 cells/ml in HBSS) were pretreated with a 25 μg/ml control IgG, 50 nM purified DBP or 25 μg/ml affinity-purified anti-CD44 and then allowed to interact with DBP immobilized on a Biacore sensor chip. Data is expressed as response units of the molecular interaction on the sensor chip.
According to the present invention, the interaction of an immobilized ligand, e.g., immobilized DBP, binding to cells can be measure by any established technology available in the art, e.g., by surface plasmon resonance (SPR) or Biacore technology. For example, in the present invention, the binding of U937-C5aR cells to immobilized DBP were examined by Biacore technology, the result of which is used to further determine if the DBP peptides generated in the present invention can alter the interaction U937-C5aR cells and DBP. […] To investigate further the effect of DBP peptides on cell binding, peptide 1 (FIG. 9B) and peptide 2 (FIG. 9C) were immobilized to Biacore sensor chips. […] Finally, the present invention also identifies that CD44 on the cell surface binds DBP and can, in part, mediate the C5a chemotactic cofactor effect of DBP (McVoy and Kew, J. Immunol. 175:4754, 2005). Therefore, using Biacore technology the present invention addresses the effect of blocking CD44 on U937-C5aR binding to immobilized DBP (FIG. 10). In the present invention, U937-C5aR cells were pretreated with either an irrelevant goat IgG (negative control), purified soluble DBP (positive control) or affinity-purified goat anti-CD44. […] These Biacore experiments have provided a powerful quantitative tool to investigate the cell binding region on DBP and examine the effects on DBP peptides on this interaction.

U937-C5aR cells [3] = assay: Biacore: U937-C5aR cell binding to immobilized DBP peptides; design: species or system human; settings: FIG. 9B, 9C; peptide immobilized to Biacore sensor chip
Description: as §2
According to the present invention, the interaction of an immobilized ligand, e.g., immobilized DBP, binding to cells can be measure by any established technology available in the art, e.g., by surface plasmon resonance (SPR) or Biacore technology. For example, in the present invention, the binding of U937-C5aR cells to immobilized DBP were examined by Biacore technology, the result of which is used to further determine if the DBP peptides generated in the present invention can alter the interaction U937-C5aR cells and DBP. […] To investigate further the effect of DBP peptides on cell binding, peptide 1 (FIG. 9B) and peptide 2 (FIG. 9C) were immobilized to Biacore sensor chips. […] These Biacore experiments have provided a powerful quantitative tool to investigate the cell binding region on DBP and examine the effects on DBP peptides on this interaction.

U937-C5aR cells [4] = assay: C5a-induced intracellular calcium mobilization in U937-C5aR cells; format: cell-based, human; settings: FIG. 11B, 12; 0.5 μM DBP peptide, 50 nM DBP, 0.1 nM C5a
Description: FIG. 11A and FIG. 11B show the effect of DBP on C5a-induced intracellular calcium mobilization in U937-C5aR cells. U937-C5aR cells (10^7 cells/ml) were resuspended in HBSS-1% BSA containing 2 μM Fluo-3 AM and incubated at 37° C. for 40 minutes. Cells incubated without the dye were used as a control to measure autofluorescence (Fmin). Following the dye uptake, cells were washed twice then suspended at 5×10^6 cells/ml in HBSS containing 1% BSA. For the pretreatment experiments, cells were incubated for 30 min at 22° C. with 50 nM DBP or 0.5 μM DBP peptide 1 (p1). For each measurement, 400 μl of cell suspension was added to a cuvette and stimulated with the indicated concentration of C5a (FIG. 11A) or 0.1 nM C5a (FIG. 11B). Fluorescence was then measured immediately using a Perkin-Elmer LS-5 fluorometer at 505 nm excitation, 526 nm emission for Fluo-3 AM. Fmax was measured by treating labeled cells with 60 μM digitonin. Intracellular free calcium concentrations were calculated using the following formula: (Ca^2+)=Kd (F−Fmin)/(Fmax−F), where Kd=325 nM for Fluo-3 according to manufacturer (Molecular Probes). Data are presented as mean±SEM (n=4-6) of the increase in intracellular calcium concentration.
U937-C5aR cells (10^7 cells/ml) were resuspended in HBSS-1% BSA containing 2 μM Fluo-3 AM and incubated at 37° C. for 40 minutes. Cells incubated without the dye were used as a control to measure autofluorescence (Fmin). Following the dye uptake, cells were washed twice then suspended at 5×10^6 cells/ml in HBSS containing 1% BSA. Cells were incubated for 30 min at 22° C. with either 50 nM DBP or 0.5 μM DBP peptide. For each measurement, 400 μl of cell suspension was added to a cuvette and stimulated with 0.1 nM purified C5a. Fluorescence was then measured immediately using a Perkin-Elmer LS-5 fluorometer at 505 nm excitation, 526 nm emission for Fluo-3 AM. Fmax was measured by treating labeled cells with 60 μM digitonin. Intracellular free calcium concentrations were calculated using the following formula: (Ca2+)=Kd (F−Fmin)/(Fmax−F), where Kd=325 nM for Fluo-3 according to manufacturer (Molecular Probes)

[5] = tested on: differentiated HL-60 cells; assay: Ligand-induced calcium mobilization (Fluo-3 AM) in differentiated HL-60 cells; format: cell-based, Human; settings: differentiated HL-60 cells incubated 30 min with 50 nM of indicated DBP, then C5a
Description: as §1
Ligand-induced calcium mobilization. Calcium mobilization studies were performed using the Fluo-3 AM probe as described previously (see Merritt, J. E. et al., Biochem. J. 269, 513-519 (1990)). Differentiated HL-60 cells (1×10^7 cells/ml) were resuspended in HBSS-1% BSA containing 2 μM Fluo-3 AM (Molecular Probes, Eugene, Oreg.) and incubated at 37° C. for 40 minutes. Cells incubated without the dye were used as a control to measure autofluorescence (Fmin). Following the dye uptake, cells were washed twice then suspended at 5×10^6 cells/ml in HBSS containing 1% BSA. Half of the cell suspension was treated with 50 nM DBP for 30 min at room temperature, the other half served as the untreated control. For each measurement, 400 μl of cell suspension (with or without DBP) was added to a cuvette and stimulated with various concentrations of purified C5a at room temperature (22-24° C.). Fluorescence was then measured immediately using a Perkin-Elmer LS-5 fluorometer at 505 nm excitation, 526 nm emission for Fluo-3 AM. Fmax was measured by treating labeled cells with 60 μM digitonin. Intracellular free calcium concentrations were calculated using the following formula: (Ca^2+)=Kd (F−Fmin)/(Fmax−F), where Kd=325 nM for Fluo-3 according to manufacturer (Molecular Probes).

G-actin = target: T2, G-actin (Oryctolagus cuniculus, UniProt P68135); assay: G-actin binding detected by non-denaturing PAGE; settings: non-denaturing PAGE (data not shown)
T2 construct: G-actin was purified from rabbit skeletal muscle; from tissue; host or cells: rabbit skeletal muscle
Description: Functional characterization of reDBP. The capacity of reDBP to bind 25(OH)-vitamin D3 was measured to determine if the expressed proteins could functionally bind a physiological ligand. […] The ability of reDBPs to enhance C5a-mediated chemotaxis and Ca^2+ flux in differentiated HL-60 cells was determined next.

| Molecule | block of the cochemotactic function of full-length natural DBP (C5a+DBP) ([1]; listed as DBP peptide 1) | block of the cochemotactic function of full-length natural DBP (C5a+DBP) ([1]; listed as SEQ ID NO: 3) | HL-60 cell chemotactic response to complement-activated serum (ZAS) ([1]; listed as DBP peptide 1) | HL-60 cell chemotactic response to complement-activated serum (ZAS) ([1]; listed as SEQ ID NO: 3) | enhancement of C5a-mediated chemotaxis by the peptides [1] | inhibition of U937-C5aR cell binding to the DBP chip [2] | U937-C5aR cell binding to immobilized peptide (U937-C5aR cells [3]) | block of the DBP-enhanced C5a calcium signal (U937-C5aR cells [4]) | block of the cochemotactic function of full-length natural DBP (C5a+DBP) [1] | enhancement of C5a-mediated chemotaxis (net cell movement) ([1]; differentiated HL-60 cells, 100 pM C5a (FIG. 1: 25-200 pM) plus 50 nM of indicated DBP, 60 min at 37° C) | enhancement of intracellular Ca2+ flux in response to C5a [5] | G-actin binding (G-actin) |
| --- | --- | --- | --- | --- | --- | --- | --- | --- | --- | --- | --- | --- |
| EAFRKDPKEYANQFMWEYSTNYG [peptide 1, DBP residues 130-152] | completely blocked the chemotactic enhancing effect of DBP | completely block | completely blocked | eliminate | could not enhance C5a-mediated chemotaxis | no effect on cell binding | do not bind | completely blocks | – | – | – | – |
| NYGQAPLSLLVSYTKSYLSMVGS [peptide 2, DBP residues 150-172] | – | – | – | – | could not enhance C5a-mediated chemotaxis | about 50% | do bind | – | not | – | – | – |
| B1 | – | – | – | – | – | – | – | – | – | significantly enhanced | significantly enhanced | bound G-actin in a 1:1 molar complex |
